Laboratory results published in PubChem BioAssay (NCI).
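Assay format: 96-well plates, 48-hour exposure. The concentration for full growth arrest is given as TGI.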

What was measured:
Assay in all cases: inhibition of tumour cell growth, NCI panel, 48 h
786-0 renal = system: 786-0 renal
UACC-62 melanoma = system: UACC-62 melanoma
SF-539 CNS = system: SF-539 CNS
A549 NSCLC = system: A549 NSCLC
HOP-92 NSCLC = system: HOP-92 NSCLC
SR leukemia = system: SR leukemia
IGROV1 ovarian = system: IGROV1 ovarian
MOLT-4 leukemia = system: MOLT-4 leukemia
SK-MEL-2 melanoma = system: SK-MEL-2 melanoma
KM12 colon = system: KM12 colon
K-562 leukemia = system: K-562 leukemia
OVCAR-8 ovarian = system: OVCAR-8 ovarian
DLD-1 colon = system: DLD-1 colon
SK-MEL-28 melanoma = system: SK-MEL-28 melanoma
NCI-H23 lung = system: NCI-H23 lung
SF-268 CNS = system: SF-268 CNS
NCI-H522 lung = system: NCI-H522 lung
MALME-3M melanoma = system: MALME-3M melanoma
SF-295 CNS = system: SF-295 CNS
SNB-19 CNS = system: SNB-19 CNS
SNB-78 CNS = system: SNB-78 CNS
TK-10 renal = system: TK-10 renal
HT29 colon = system: HT29 colon
SK-OV-3 ovarian = system: SK-OV-3 ovarian
DMS 114 small cell lung = system: DMS 114 small cell lung
NCI-H226 lung = system: NCI-H226 lung
LOX IMVI melanoma = system: LOX IMVI melanoma
HCT-116 colon = system: HCT-116 colon
LXFL 529 NSCLC = system: LXFL 529 NSCLC
CCRF-CEM leukemia = system: CCRF-CEM leukemia
HL-60(TB) leukemia = system: HL-60(TB) leukemia
EKVX NSCLC = system: EKVX NSCLC
SNB-75 CNS = system: SNB-75 CNS
OVCAR-3 ovarian = system: OVCAR-3 ovarian
M14 melanoma = system: M14 melanoma
HCC-2998 colon = system: HCC-2998 colon
SK-MEL-5 melanoma = system: SK-MEL-5 melanoma
OVCAR-4 ovarian = system: OVCAR-4 ovarian
CAKI-1 renal = system: CAKI-1 renal
M19-MEL melanoma = system: M19-MEL melanoma
HOP-62 NSCLC = system: HOP-62 NSCLC
UO-31 renal = system: UO-31 renal
DMS 273 small cell lung = system: DMS 273 small cell lung
COLO 205 colon = system: COLO 205 colon
UACC-257 melanoma = system: UACC-257 melanoma
SW-620 colon = system: SW-620 colon
XF 498 CNS = system: XF 498 CNS
A498 renal = system: A498 renal
SN12C renal = system: SN12C renal
RPMI-8226 leukemia = system: RPMI-8226 leukemia

## O=S1(=O)OCCOS(=O)(=O)C1(I)I
786-0 renal
  TGI: 35 µM
UACC-62 melanoma
  TGI: 30.3 µM
SF-539 CNS
  TGI: 40.1 µM
A549 NSCLC
  TGI: 71.1 µM
HOP-92 NSCLC
  TGI: 29.8 µM
SR leukemia
  TGI: 49.1 µM
IGROV1 ovarian
  TGI: 63.8 µM
MOLT-4 leukemia
  TGI: 56.9 µM
SK-MEL-2 melanoma
  TGI: 39.5 µM
KM12 colon
  TGI: 40.8 µM
K-562 leukemia
  TGI: 74.6 µM
OVCAR-8 ovarian
  TGI: 59.5 µM
DLD-1 colon
  TGI: 35.8 µM
SK-MEL-28 melanoma
  TGI: 55.2 µM
NCI-H23 lung
  TGI: 27.9 µM
SF-268 CNS
  TGI: 74.7 µM
NCI-H522 lung
  TGI: 45.2 µM
MALME-3M melanoma
  TGI: 37.6 µM
SF-295 CNS
  TGI: 90.8 µM
SNB-19 CNS
  TGI: 55.3 µM
SNB-78 CNS
  TGI: 86.4 µM
TK-10 renal
  TGI: 70.3 µM
HT29 colon
  TGI: 69.4 µM
SK-OV-3 ovarian
  TGI: 47.2 µM
DMS 114 small cell lung
  TGI: 43.9 µM
NCI-H226 lung
  TGI: 29.7 µM
LOX IMVI melanoma
  TGI: 30.5 µM
HCT-116 colon
  TGI: 29.9 µM
LXFL 529 NSCLC
  TGI: 27.3 µM
CCRF-CEM leukemia
  TGI: 35.6 µM
HL-60(TB) leukemia
  TGI: 68.3 µM
EKVX NSCLC
  TGI: 59 µM
SNB-75 CNS
  TGI: 48.7 µM
OVCAR-3 ovarian
  TGI: 73.8 µM
M14 melanoma
  TGI: 50.7 µM
HCC-2998 colon
  TGI: 35.2 µM
SK-MEL-5 melanoma
  TGI: 30 µM
OVCAR-4 ovarian
  TGI: 48.9 µM
CAKI-1 renal
  TGI: 35.7 µM
M19-MEL melanoma
  TGI: 53.8 µM
HOP-62 NSCLC
  TGI: 38.9 µM
UO-31 renal
  TGI: 33.3 µM
DMS 273 small cell lung
  TGI: 47.3 µM
COLO 205 colon
  TGI: 37.8 µM
UACC-257 melanoma
  TGI: 46.3 µM
SW-620 colon
  TGI: 39.3 µM
XF 498 CNS
  TGI: 37.5 µM
A498 renal
  TGI: 30.3 µM
SN12C renal
  TGI: 38.2 µM
RPMI-8226 leukemia
  TGI: 36.8 µM
